In paper PMC10081574, “Evaluation of Antiviral Activity of Gemcitabine Derivatives against Influenza Virus and Severe Acute Respiratory Syndrome Coronavirus 2” (ACS Infectious Diseases, 2023):
Entries after “also recorded” stand apart in the source; their conditions may differ. Where two headings read alike, the source gives them in different places.

Experiments:
A/Hong Kong/8/68 (H3N2) [1] = conditions: for SI50 HK: ratio of CC50 to EC50; for SI90 HK: ratio of CC10 to EC90
A/Hong Kong/8/68 (H3N2) [2] = assay: microbe, parasite or virus in culture; conditions: Influenza A virus, H3N2, MDCK, 72 h; for EC50: read-out: EC50 HK; for EC90: read-out: EC90 HK; for viability at 10 µM: read-out: viability of HK-infected cells in library screening
[3] = Cytotoxicity to mock-infected MDCK cells (MTT); conditions: dog, mock-infected MDCK cells
MDCK cells [4] = assay: Cytotoxicity to mock-infected MDCK cells (MTT); conditions: for CC10: mock-infected MDCK cells, day 3, MTT, concentration inhibiting cell viability by 10%
B/Lee/40 = assay: CPE reduction antiviral assay in Lee-infected MDCK cells (MTT); format: cell-based, influenza B virus; conditions: for EC50: viability of infected cells to 50%; for EC90: read-out: EC90 Lee; for SI90 Lee: ratio of CC10 to EC90; for SI50 Lee: ratio of CC50 to EC50
[5] = system: influenza A and B viruses; assay: CPE reduction antiviral assay, values summarised over influenza strains PR8, HK and Lee; format: cell-based, influenza virus; conditions: for SI90 against influenza viruses / SI50 against influenza viruses: over PR8, HK and Lee; for EC50: read-out: EC50 against influenza viruses; for SI50 against influenza viruses: CC50/EC50
PR8 virus [6] = format: cell-based, influenza A virus
PR8 virus [7] = format: cell-based, influenza A virus; remark: listed apart in the source
[8] = biological target: polymerase activity of influenza A virus PR8 (Influenza A virus, UniProt P03431); format: cell-based; conditions: 11, 33 and 100 μM, 72 h time course
Chain of polymerase activity of influenza A virus PR8 (P03431 whole entry, looked up): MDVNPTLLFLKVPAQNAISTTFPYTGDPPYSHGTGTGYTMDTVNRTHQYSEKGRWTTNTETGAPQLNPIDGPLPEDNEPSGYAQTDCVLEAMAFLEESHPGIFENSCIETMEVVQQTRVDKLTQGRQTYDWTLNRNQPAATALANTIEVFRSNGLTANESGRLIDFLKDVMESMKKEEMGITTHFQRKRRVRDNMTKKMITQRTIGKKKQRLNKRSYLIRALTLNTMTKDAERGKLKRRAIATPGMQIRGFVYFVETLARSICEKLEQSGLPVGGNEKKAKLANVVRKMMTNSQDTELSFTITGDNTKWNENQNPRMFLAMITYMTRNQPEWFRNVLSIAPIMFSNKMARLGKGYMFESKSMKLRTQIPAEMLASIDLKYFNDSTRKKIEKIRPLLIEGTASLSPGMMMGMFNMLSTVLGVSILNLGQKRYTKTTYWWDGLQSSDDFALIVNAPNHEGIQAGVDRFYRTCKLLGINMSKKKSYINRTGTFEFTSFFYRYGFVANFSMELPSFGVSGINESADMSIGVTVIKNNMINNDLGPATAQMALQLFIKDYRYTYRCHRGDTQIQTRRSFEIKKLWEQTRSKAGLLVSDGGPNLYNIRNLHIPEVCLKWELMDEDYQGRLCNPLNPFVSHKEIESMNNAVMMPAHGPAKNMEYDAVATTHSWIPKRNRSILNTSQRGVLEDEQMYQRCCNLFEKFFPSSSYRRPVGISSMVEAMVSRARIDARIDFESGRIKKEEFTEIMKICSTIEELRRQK

[9] = system: A/Puerto Rico/8/34 (H1N1); conditions: for SI90 PR8: ratio of CC10 to EC90; for SI50 PR8: ratio of CC50 to EC50
in vitro [10] = conditions: dog
physchem = conditions: aqueous buffer
[11] = system: A/Puerto Rico/8/34 (H1N1); assay: microbe, parasite or virus in culture; conditions: Influenza A virus, 72 h; for EC50 / EC90: H1N1 / PR8, MDCK; for EC50: read-out: EC50 PR8; for EC90: read-out: EC90 PR8; for viability at 10 µM: H1N1|PR8, MDCK, read-out: viability of PR8-infected cells in library screening
SARS-CoV-2 = assay: Anti-SARS-CoV-2 immunofluorescence assay (anti-S) in Calu-3 cells; format: cell-based; conditions: for SI SARS-CoV-2: ratio of CC50 to EC50
MDCK cells [12] = system: MDCK cells
[13] = male, BALB/c, mouse, in vivo, ip, 5 mg/kg, 30 min
[14] = mouse, microsomes
in vitro [15] = conditions: human
Calu-3 cells = assay: Cytotoxicity to mock-infected Calu-3 cells (MTT); conditions: 100 μM
[16] = system: Caco-2 human colorectal adenocarcinoma cells; parameters: method as in PMID 35310327; conditions: 0.1 μM to 1 mM, 3 day incubation; cited from earlier work
[17] = clinical study; cited from earlier work
[18] = Influenza B virus, MDCK, 72 h, read-out: EC50 Lee, MDCK, MOI 0.001, day 3
[19] = Influenza A virus, PR8, MDCK, span over PR8, HK and Lee, MDCK, read-out: EC90 against influenza viruses
[20] = span over PR8, HK and Lee, MDCK, read-out: EC90 against influenza viruses
[21] = Influenza B virus, MDCK, 72 h, MDCK, MOI 0.001, day 3, read-out: EC50 Lee
[22] = Influenza A virus, span over PR8, HK and Lee, MDCK

NC12CC3CC(CC(C3)C1)C2 [Amantadine, reference compound]
SI50 HK (A/Hong Kong/8/68 (H3N2) [1]): > 19.5 | EC50 (A/Hong Kong/8/68 (H3N2) [2]): 15.4 ± 5.1 µM | CC50 at 3 days [3]: > 300 µM | CC10 (MDCK cells [4]): 91.0 ± 34.5 µM

O=C(Nc1ccn([C@@H]2O[C@H](CO)[C@@H](O)C2(F)F)c(=O)n1)c1cccc(-c2ccccc2)n1 [Compound 2e]
EC50 (B/Lee/40; [18]): 3.39 ± 0.1 µM | EC90 (B/Lee/40; Influenza B virus, MDCK, 72 h): 34.3 ± 4.3 µM | SI90 Lee (B/Lee/40): > 8.7 | SI50 Lee (B/Lee/40): > 88.5 | EC90 [5, 19]: 10.7 to 34.3 µM | SI90 against influenza viruses ([5]; CC10/EC90): > 8.7 | EC90 [5, 20]: 14.5 to 34.3 µM | reduction of viral NP protein expression (PR8 virus [6]): in a dose-dependent manner | reduction of viral RNA copies (PR8 virus [7]): in a dose-dependent manner | inhibition of viral polymerase activity (EGFP expression) [8]: Inhibition of influenza A viral polymerase activity | SI90 PR8 [9]: > 18.1 | SI50 PR8 [9]: > 73.3 | SI90 HK (A/Hong Kong/8/68 (H3N2) [1]): > 20.7 | CC50 at 3 days (in vitro [10]): > 300 µM | viability at 3 days, 300 µM (in vitro [10]): > 90% | solubility (physchem): < 0.5 mg/mL | EC50 [11]: 4.1 ± 0.4 µM | EC90 [11]: 16.6 ± 8.6 µM | EC50 (A/Hong Kong/8/68 (H3N2) [2]): 5 ± 0.1 µM | EC90 (A/Hong Kong/8/68 (H3N2) [2]): 14.5 ± 0.4 µM

Nc1ccc(C(=O)Nc2ccn([C@@H]3O[C@H](CO)[C@@H](O)C3(F)F)c(=O)n2)nc1 [Compound 2h]
EC90 (B/Lee/40; Influenza B virus, 72 h, MDCK, MOI 0.001, day 3, viability of infected cells to 90%): 15.9 ± 1.7 µM | EC50 (B/Lee/40; [21]): 4.1 ± 0.4 µM | SI90 Lee (B/Lee/40): > 18.8 | SI50 Lee (B/Lee/40): > 73.1 | EC90 [5, 19]: 10.7 to 34.3 µM | SI90 against influenza viruses ([5]; CC10/EC90): > 8.7 | EC90 [5, 20]: 11.4 to 15.9 µM | reduction of viral NP protein expression (PR8 virus [6]): in a dose-dependent manner | reduction of viral RNA copies (PR8 virus [7]): in a dose-dependent manner | inhibition of viral polymerase activity (EGFP expression) [8]: potently inhibited viral polymerase activity in a dose-dependent manner | reduction of the viral S protein (immunofluorescence) (SARS-CoV-2; 1.2, 3.7, 11.1 and 33.3 μM, 2 days): in a dose-dependent manner | EC50 (SARS-CoV-2; Severe acute respiratory syndrome coronavirus 2, 48 h, Calu-3, MOI 0.05, 2 days): 0.46 µM | SI SARS-CoV-2 (SARS-CoV-2): > 217.4 | reduction of cytotoxicity relative to gemcitabine (MDCK cells [12]; dog, 3 days): over 60 fold | SI90 PR8 [9]: > 24.5 | SI50 PR8 [9]: > 47.2 | SI90 HK (A/Hong Kong/8/68 (H3N2) [1]): > 26.3 | SI50 HK (A/Hong Kong/8/68 (H3N2) [1]): > 59.5 | share of 2h converted to gemcitabine [13]: 17.5% | stability in a microsomal condition in vitro [14]: much more stable | CC50 at 3 days (in vitro [10]): > 300 µM | viability at 3 days, 300 µM (in vitro [10]): > 90% | CC50 at 2 days (in vitro [15]): > 100 µM | solubility (physchem): ≥ 2 mg/mL | EC50 [11]: 6.4 ± 0.6 µM | EC90 [11]: 12.2 ± 1 µM | EC50 (A/Hong Kong/8/68 (H3N2) [2]): 5 ± 0.3 µM | EC90 (A/Hong Kong/8/68 (H3N2) [2]): 11.4 ± 0.6 µM | cell death (Calu-3 cells): about 20%

O=C(Nc1ccn([C@@H]2O[C@H](CO)[C@@H](O)C2(F)F)c(=O)n1)c1cccnc1 [Compound 3a]
EC50 (B/Lee/40; [21]): 3.1 ± 0.5 µM | activity against influenza B virus by EC90/SI90 criteria (B/Lee/40; MDCK, 90% viability criteria): not against influenza B virus | SI50 Lee (B/Lee/40): > 95.7 | EC90 [5, 19]: 1.4 to 16.9 µM | EC90 ([5]; Influenza A virus, PR8, PR8 and HK only, read-out: EC90 against influenza A viruses): 10.6 to 16.9 µM | EC50 [5, 22]: 3.1 to 6.2 µM | SI90 against influenza A viruses ([5]; PR8 and HK only, CC10/EC90): 2.7–4.2 | concentration of maximal antiviral efficacy ([5]; dose-response, MDCK): ~33 µM | SI50 against influenza viruses [5]: > 48.4 | reduction of cytotoxicity relative to gemcitabine (MDCK cells [12]): ninefold | SI90 PR8 [9]: 2.7 | SI50 PR8 [9]: > 52.1 | SI90 HK (A/Hong Kong/8/68 (H3N2) [1]): 4.2 | SI50 HK (A/Hong Kong/8/68 (H3N2) [1]): > 48.4 | CC50 at 3 days (in vitro [10]): > 300 µM | EC50 [11]: 5.8 ± 0.9 µM | EC90 [11]: 16.9 ± 7.2 µM | viability at 10 µM [11]: > 50% | EC50 (A/Hong Kong/8/68 (H3N2) [2]): 6.2 ± 1.1 µM | EC90 (A/Hong Kong/8/68 (H3N2) [2]): 10.6 ± 0.8 µM | viability at 10 µM (A/Hong Kong/8/68 (H3N2) [2]): > 50%

Nc1ccn([C@@H]2O[C@H](CO)[C@@H](O)C2(F)F)c(=O)n1 [Gemcitabine, 2′,2′-difluoro-2′-deoxycytidine]
EC50 (B/Lee/40; [18]): 0.7 µM | EC50 (B/Lee/40; MDCK, MOI 0.001, day 3, read-out: EC50 Lee): 0.4 µM | EC50 [5, 22]: 0.3 to 0.7 µM | recovery of viability of virus-infected cells with 90% cutoff ([5]; MDCK, day 3): failed to reach cell viability above 90%; also recorded: failed to recover over 90% cell viability | SI50 against influenza viruses [5]: above 464.8 | SI50 HK (A/Hong Kong/8/68 (H3N2) [1]): > 883.5 | suppression of Caco-2 cancer cell proliferation [16]: 40–50% | toxicity after oral administration [17]: liver necrosis-mediated lethal hepatotoxicity | EC50 [11]: 0.6 µM | viability at 10 µM [11]: > 50% | EC50 (A/Hong Kong/8/68 (H3N2) [2]): 0.3 µM | viability at 10 µM (A/Hong Kong/8/68 (H3N2) [2]): > 50% | CC50 at 3 days [3]: > 300 µM | cytotoxicity at a higher concentration (MDCK cells [4]; 100 μM, MDCK, data not shown): severe cytotoxicity | concentrations at which MDCK cell viability gradually decreased (MDCK cells [4]; incubation of MDCK cells): above 3.3 μM | CC10 (MDCK cells [4]): 5.0 ± 0.3 µM | CC10 (MDCK cells [4]; listed as gemcitabine): 5.0 µM

CCC(CC)COC(=O)[C@H](C)N[P@](=O)(OC[C@H]1O[C@@](C#N)(c2ccc3c(N)ncnn23)[C@H](O)[C@@H]1O)Oc1ccccc1 [Remdesivir, reference compound]
SI SARS-CoV-2 (SARS-CoV-2): > 129.0

NC(=O)c1ncn([C@@H]2O[C@H](CO)[C@@H](O)[C@H]2O)n1 [Ribavirin, reference compound]
EC50 (B/Lee/40; [18]): 11.1 ± 0.1 µM | EC90 (B/Lee/40; Influenza B virus, MDCK, 72 h): 141 ± 18.3 µM | EC50 [11]: 20.1 µM | EC90 [11]: 79.4 µM | EC50 (A/Hong Kong/8/68 (H3N2) [2]): 20.4 µM | EC90 (A/Hong Kong/8/68 (H3N2) [2]): 59.5 µM | CC50 at 3 days [3]: > 300 µM
